According to patent US20170367338A1, “COMPOSITIONS AND METHODS FOR IMPROVING AGRONOMIC CHARACTERISTICS OF PLANTS” (MONSANTO TECHNOLOGY LLC, priority 2014, published 2017):
Converted amounts (≈) assume the structure as drawn. Read-outs that look alike come from different tables or passages of the source. Marks after values point to notes of the source that are not given here.

What was measured:
[1] = test system: root knot nematode (RKN); assay: RKN greenhouse soil assay on cucumber plants; assay type: in vivo; conditions: for percent control (galling reduction), Acetone 1 mg/kg: Acetone formulation (10% acetone in 0.05% Triton X 100)
From the text: Cucumber seeds are planted in a sandy soil mixture in two inch square plastic pots. When the cotyledons are fully opened and just as the first leaf begins to emerge, usually 7 days after planting, chemistry for the 7 day treatment is applied. One week later the chemistry for the 0 day treatment is applied. Separate plants are used for each application. The plants are generally in the 1-2 leaf stage now. At least four hours after the chemistry application the pots are inoculated with root knot nematode (RKN) eggs. Plants are rated for galling 14 days after the egg inoculation.
(§1) One milligram of chemistry per four pots is equal to one kilogram per hectare of chemical. A standard test uses four replications. For rates above 2 kg/ha, the desired amount of chemical is weighed into a 30 ml vial (example: 8 kg/ha rate =8 mg chemical in 30 ml vial). The chemical is dissolved in 2 ml of appropriate solvent, generally acetone. For rates below 2 kg/ha, 2 milligrams of chemistry is weighed into the vial and dissolved in 2 ml of the solvent. The appropriate amount of chemical concentrate is then pipetted into a separate 30 ml vial and solvent is added to bring the volume to 2 ml (example 0.5 kg/ha=0.5 ml of concentrate+1.5 ml solvent). Each dissolved concentrate is then brought to a total of 20 milliliters using 0.05% Triton X 100 surfactant solution.
(§2) Pots to be treated are moist but not saturated. To each of four pots, five milliliters of the appropriate chemical solution is pipetted to the media surface making sure to avoid contact with the base of the plant. Immediately following chemical application, using a mist nozzle, the pot surface is wetted sufficiently to saturate the pot watering in the chemistry. The chemical application is done in the morning.
(§3) Nematode eggs, either SCN or RKN, are added to distilled water to create a concentration of 1000 vermiform eggs […]. At least four hours after chemical treatment the eggs are applied to the treated pots plus non-treated check plants. A small hole about 1 cm deep is punched into the pot surface. One milliliter of the nematode egg slurry is pipetted into the hole. Immediately afterwards the hole is gently covered. Watering of the test plants is then restricted to only water as needed to prevent wilt for a period of 24 hours. After the 24 hour restricted watering, normal sub-irrigation watering is done for the duration of the test.

[2] = test system: root knot nematode (RKN); assay: RKN greenhouse soil assay on cucumber plants; assay type: in vivo; conditions: Radex emulsifiable concentrate formulation (6.25% active ingredient)
[3] = test system: Meloidogyne incognita; assay: M. incognita miniaturized greenhouse assay on cucumber seedlings; assay type: in vivo; conditions: 1 ppm
Experimental: The test compound is dissolved in an acetone solution and added to water. A sprouted cucumber seedling is placed into a vial with dry sand and the water-chemical solution is added immediately. Twenty four hours later Meloidogyne incognita eggs are added to the vials and 10 to 12 days later the roots are evaluated for nematode galling.
Cucumber seeds are sprouted for 3 days in moist paper towels. Acceptable sprouts should be 3 to 4 cm long with several lateral roots just emerging. Stock solutions of chemistry are prepared in a mixture of acetone and Triton X100 (412 mg in 500 mL) to a final concentration of 5 mg/mL. The chemical stock solution is then added to 10 mL deionized water plus 0.015% Triton X100 and mixed thoroughly. This is enough to test each condition in triplicate. Ten mL dry sand is added to each vial. At this time the solubility of the chemistry is visually determined and recorded as either ppt (large precipitates) or cloudy (fine precipitates). Seedlings are planted by tilting the vial and laying the seedling in the correct orientation so that the cotyledons are just above the sand and then tilting back to cover the radicles with sand. 3.3 ml water/chemical mix is added to each vial and the vials placed in racks under fluorescent light banks. The vials are inoculated two days after planting by adding 500 vermiform M. incognita eggs to each vial in 50 uL of deionized or spring water. The vials are then kept under the fluorescent lamps at ambient room temperature and watered as needed with 1mL deionized water, usually twice during duration of test. Harvest of the cucumber plants is done 10 to 12 days after inoculation by washing sand off the roots. A root gall rating and visual phytotoxicity rating is assigned using the following scales: Gall rating scale (Gall: % root mass galled): 0=0-5%; 1=6-20%; 2=21-50%; and 3=51-100%. The average of the triplicate gall rating is then calculated: green=0.00-0.33 (no galls); yellow=0.67-1.33 (mild galling); orange=1.67-2.33 (moderate galling); red=2.67-3.00 (severe galling). Visual phytotoxicity scale is also assigned (Vis. tox; visual reduction in root mass compared to the control): rs1=mild stunting; rs2=moderate stunting; rs3=severe stunting.

[4] = test system: soybean cyst nematode (SCN); assay: SCN greenhouse sand assay on soybean plants; assay type: in vivo; conditions: Glycine max, 672 h, read-out: percent control (cyst number reduction) relative to the control blank treatment
From the text: Soybeans seeds are planted in 100% sand in two inch square plastic pots. Chemical treatment is done when the soybeans show the first trifoliate beginning to emerge about 10 to 12 days after planting. At least four hours after chemical application the nematode soybean cyst nematode (SCN) eggs are applied and 28 days after the egg inoculation the test is harvested.
as §1, §2, §3

[5] = assay type: in vivo
Experimental: Acute oral toxicity testing was performed in mice in accordance with test method P203.UDP, as administered by Eurofins/Product Safety Laboratories (Dayton, New Jersey). CD-1/Swiss derived albino mice were obtained and group housed in suspended solid bottom caging. The mice were fed rodent chow and filtered tap water was supplied ad libitum. Following acclimation to the laboratory setting, a group of animals was fasted overnight by removing food from the cages. After the fasting period, three female mice were selected based on vitality and initial body weights. The individual compound doses were calculated from these body weights.
The test substance was prepared as a 1% (50 mg/kg) or 5% (500 mg/kg) weight to weight (w/w) mixture in a 0.5% w/w solution of carboxymethylcellulose (CMC) in distilled water. A tissue homogenizer was used to create a homogeneous mixture. A dose of 50 or 500 mg/kg was administered to three healthy mice per dose level by oral intubation using a ball-tipped gavage needle attached to a syringe. After administration, the animals were returned to their cages, and feed was replaced immediately after dosing.
Body weights were recorded prior to initiation and on Days 7 and 14 or a soon as possible after death.

[6] = test system: root knot nematode; assay: Pre-plant incorporated (PPI) greenhouse test of root knot nematode on cucumber plants; assay type: in vivo; conditions: for pest or weed control at 4000 g/ha: 4 kg/ha, read-out: percent control (galling reduction), 4 kg/ha rate; for pest or weed control at 8000 g/ha: 8 ka/ha, read-out: percent control (galling reduction), 8 ka/ha rate
From the text: The PPI test examines the effect of pre-incorporation of compounds in soil and longer aging to simulate in furrow methods of nematicide application in the field. The PPI test exposes compounds to a higher volume of soil and drying which can result in more severe soil binding. Compounds are also aged for longer periods which can lead to more extensive biotic and abiotic degradation further limiting activity.
The chemically treated soil (sandy soil mix) for all treatment days (e.g., 7 days, 14 days, 21 days) treatments is potted into their appropriate pots. On the same day the 7 day treatment pots are seeded. One week later eggs are applied and 14 days after egg application the test is harvested. The 14 day treatments are planted 7 days after the first planting. The 14 day planting and 7 day inoculation happen on the same day. One week later the 14 day treatments are inoculated with eggs. These are harvested 14 days after the inoculation. The 21 day treatments are planted 14 days after the first planting. The 14 day inoculation and 21 day planting are done on the same day. One week later the 21 day plants are inoculated with eggs. The 7 day treatment is harvested the same day as the 21 day inoculation. Fourteen days after inoculation the 21 day plants are harvested.
For each compound a stock is prepared using 4 mg material in 4 ml of acetone. The soil is mixed by placing 80 ml of field soil and 320 ml of sand in a plastic bag and mixing well. The formulation for treatment is done by adding 2.13 ml (8 kg/ha rate), 1.06 ml (4 kg/ha rate) or 0.53 ml (2 kg/ha rate) to a vial and raising it with 10 ml in 0.05% X100. Soil is then treated by adding the entire 10 ml to the 400 ml of mix in the bag. The treated soil is immediately mixed well in the sealed bag to distribute the compound evenly. Approximately 95 ml is used to fill each 2-inch square pot up to the top with some soil compression and flattening. For each compound and for the control treatments 4 pots are filled. All pots are watered until moist but with no run-out through the bottom.
The PPI test simulates 8, 4 and 2 kg/ha rates incorporated 15 cm deep in the field and is equivalent to the 2, 1 and 0.5 kg/ha drench application rates in the standard 2-inch pot cucumber greenhouse assay.

[7] = test system: Meloidogyne incognita; assay: Fall nematicidal field test on squash
From the text: The soil was a native prairie/pasture covering silty clay loam soil. […] Total volume of each hole was about 1.2 cubic feet. […] Holes were filled and then re-filled 5 days later after settling. […] Organic matter was 0.2% and pH was 6.8.
Treatments were arranged in a block design with the blocks laid out perpendicular to the primary slope and parallel to secondary slope. There are 7 inoculated controls and 5 non-inoculated controls and the distributions of disease severity appeared independent of location.
The resultant mix is the same as used in the standard greenhouse assays (10% acetone, 0.05% X100). The oxamyl treatments were prepared from Vydate 2L formulated the same way. The 500 ml was placed in a watering can and the entire volume was evenly sprinkled over the surface of the plot. No runoff occurred and pooling, if any, was short lived. The final drench volume was 0.58 ml/cm^2, compared to 0.2 ml/cm^2 used in our greenhouse, however the microplots are much deeper so the drench volume applied per soil volume treated is roughly the same.
Meloidogyne incognita eggs were harvested over a two week period and stored at approximately 5° C. until needed. A stock of 5.6 million vermiform eggs was adjusted to 9000/m1 in 620 ml. One day after treatment, two holes were made in each plot about 7 cm apart and equidistant from the squash plants. Five ml of egg suspension was pipetted into each hole, which was then sealed and the plot lightly watered. A total of 90,000 vermiform eggs were added to each plot.
The first root evaluation was at 28 DAT. The tops were cut off and weighed immediately in the field, and the roots were carefully dug out so as not to disturb the remaining plant.

[8] = test system: C. elegans; assay: Three day C. elegans well assay; assay type: in vivo; conditions: Caenorhabditis elegans
Experimental: Various compounds were tested for nematicidal activity against C. elegans using contact assays in wells. The assays were performed as described below. The test compounds were solubilized in DMSO at 10 mg/ml to create 100× stock solutions. A dilution series was created by diluting the stock solution with DMSO. For each well assay 4 ul of the appropriate dilution is added to a well of a test plate. A 400 ul aliquot of bacterial stock (in M9 buffer with ampicillin and nystatin) are added to each well of the test plate. Worms are added and the test plate placed on a rotary shaker and held at 20° C. Worms are examined and scored at 4 hrs, 24 hrs, 48 hrs and 72 hours. L1 worms and L4 worms were used in the assay. L1 worms are prepared by plating eggs on a plate without a bacterial feeding layer. The eggs hatch and arrest at the L1 stage. This L1 stage population is then used to create a stock for the experiments. To create an L4 stage stock a small number of worms are taken from an overgrown and starved plate of worms and seeded on a plate with a bacterial feeder layer. A 25 ul aliquot of worms is added to each well in the assay.

[9] = 504 h, twenty one day pre-plant incorporated
[10] = 336 h, fourteen day pre-plant incorporated, test a
[11] = fourteen day pre-plant incorporated, test a

With `Brc1ccc(-c2noc(-c3cccs3)n2)cc1` [compound 1846] the “percent control (galling reduction), Acetone 1 mg/kg” value [1] was 88% and the “percent control (galling reduction), Radex 1 mg/kg” value [2] was 86%.

For `Brc1ccc(-c2cnc(-c3cccs3)o2)cc1` [compound 4776], the “1 ppm gall rating” value ([3]; Table 1C test a) was 1 (1=6-20%), the “1 ppm gall rating” value ([3]; Table 1C test c) was 1 (1=6-20%) and the pest or weed control at 500 g/ha ([4]; 0.5 kg/ha, test c) was 78%. The pest or weed control at 1000 g/ha ([4]; 1 kg/ha, test c) was 89%, the pest or weed control at 2000 g/ha ([4]; 2 kg/ha, test a) was 99% and the “acute oral toxicity: mortality and signs” value ([5]; 500 mg/kg oral, three female mice, observed up to 14 days) was “two animals died within three days”. For the same compound, the oral toxicity ([5]; mice, estimate based on the 50 and 500 mg/kg studies) was “lower than 500 mg/kg”, the pest or weed control at 4000 g/ha [6, 9] was 50% and the pest or weed control at 8000 g/ha [6, 9] was 80%. The “RW28 root weight at 28 days after treatment” value ([7]; 2 kg ai/ha, squash) was 7.5, the “RW43 root weight at 43 days after treatment” value ([7]; 2 kg ai/ha, squash) was 13.0 and the “TW28 top weight at 28 days after treatment” value ([7]; 2 kg ai/ha, squash) was 250.8. For the same compound, the “control of root galling compared with oxamyl at an equivalent rate” value ([7]; both the 28 day and the 43 day time point) was “statistically better than oxamyl”.

With `Brc1ccc(-c2noc(-c3ccco3)n2)cc1` [compound 5467] the “percent control (galling reduction), Acetone 1 mg/kg” value [1] was 73%, the pest or weed control at 4000 g/ha [6, 10] was 76% and the “percent control (galling reduction), 2 kg/ha rate” value [6, 11] was 71^a percent. For the same compound, the pest or weed control at 8000 g/ha [6, 11] was 100% and the “percent control (galling reduction), Radex 1 mg/kg” value [2] was 88%.

In the case of `Cc1cc(Br)ccc1-c1noc(-c2ccco2)n1` [compound 5825], the “percent control (galling reduction) relative to the control blank treatment” value ([1]; 0 day treatment, 0.1 kg/ha, test a) is reported as 50^a percent, the “percent control (galling reduction), Acetone 1 mg/kg” value [1] is reported as 96% and the EC50 ([8]; 24 h, L1 larvae, one day of exposure, read-out: EC50 L1 1D) is reported as 0.4 µg/mL (≈ 1.31 µM). The EC50 ([8]; 24 h, L4 larvae, one day of exposure, read-out: EC50 L4 1D) was 1.6 µg/mL (≈ 5.24 µM), the EC50 ([8]; 48 h, L1 larvae, two days of exposure, read-out: EC50 L1 2D) was 0.4 µg/mL (≈ 1.31 µM) and the EC50 ([8]; 48 h, L4 larvae, two days of exposure, read-out: EC50 L4 2D) was 1.6 µg/mL (≈ 5.24 µM). The EC50 ([8]; 72 h, L1 larvae, three days of exposure, read-out: EC50 L1 3D) was 0.4 µg/mL (≈ 1.31 µM), the EC50 ([8]; 72 h, L4 larvae, three days, effects on the second generation larvae, read-out: EC50 L4 3D (F1)) was 1.6 µg/mL (≈ 5.24 µM) and the pest or weed control at 4000 g/ha [6, 10] was 98%. The “percent control (galling reduction), 2 kg/ha rate” value [6, 11] was 69^a percent, the pest or weed control at 8000 g/ha [6, 11] was 96% and the “percent control (galling reduction), Radex 1 mg/kg” value [2] was 96%.
